Experimental data as given in BigSolDB 2.1.

CC(=O)Oc1ccc(C(c2ccc(OC(C)=O)cc2)c2ccccn2)cc1
solubility (mole fraction)
Details | 278.15 K | 283.15 K | 288.15 K | 293.15 K | 298.15 K | 303.15 K | 308.15 K | 313.15 K | 318.15 K | 323.15 K
in ethanol | 0.000239 | 0.000333 | 0.000452 | 0.000618 | 0.000835 | 0.0011 | 0.00145 | 0.00192 | 0.0025 | 0.00322
in isopropanol | 0.000113 | 0.000162 | 0.000225 | 0.000311 | 0.000425 | 0.000579 | 0.000777 | 0.00104 | 0.00139 | 0.00179
in methanol | 0.000551 | 0.000716 | 0.000931 | 0.00119 | 0.0015 | 0.0019 | 0.00239 | 0.00292 | 0.00364 | 0.00449
in water | 9.39e-08 | 1.13e-07 | 1.35e-07 | 1.62e-07 | 1.91e-07 | 2.25e-07 | 2.64e-07 | 3.08e-07 | 3.57e-07 | 4.13e-07
